Data as given in PMC12190436, “5-Ene-2-arylaminothiazol-4(5H)-ones Induce Apoptosis in Breast Cancer Cells” (Cells, 2025).
Structures can show the parent of a compound that is named as a salt.

Experiments:
[1] = system: MCF-7 cells; assay: Clonogenic assay; assay type: cell-based, human; conditions: 24 h treatment, 10-day endpoint
Procedure: The clonogenic assay was performed in accordance with the published methodology. MCF-7 cells were seeded in 24-well plates at 2.5 × 10^2 cells per well in 1 mL medium. Afterwards, they were left in an incubator at 37 °C for 24 h to attach to the wells. […] After the treatment, the medium was changed to a fresh one and left for 10 days, with an additional change in medium for the fresh one on the 7th day. Next, colonies formed by the seeded cells were washed, fixed for 10 min at 4 °C with 90% methanol, and stained with crystal violet solution (0.1% of crystal violet dissolved in 25% methanol). Afterwards, the plates were washed and dried at room temperature. The wells were photographed and analyzed using ImageJ software version 1.54k (Bethesda, MD, USA), with colonies defined as clusters of fifty or more cells.
Colonies formation was assessed after a 10-day incubation period following the treatment.

[2] = system: MCF-7 cells; assay: [3H]-thymidine incorporation assay; assay type: cell-based; conditions: Homo sapiens, 24 h, read-out: [3H]-thymidine incorporation (% of control); for activity at 1 µM: MCF7, 1 µM; for activity at 2.5 µM: MCF7, 2.5 µM; for activity at 5 µM: MCF7, 5 µM
Procedure: To evaluate the effects of synthesized compounds and reference drug on cell proliferation [3H]-thymidine incorporation assay was applied. MCF-7 cells were seeded on 6-well plates as described before. After 24 h of incubation, the cells were treated with different concentrations of novel 4-thiazolidinone derivatives Les-6416, Les-6418 (1, 2.5, 5 µM), and doxorubicin hydrochloride (0.5 and 1 µM) for 24 h at 37 °C. After 24 h, the medium was changed to a fresh one without fetal bovine serum. A total of 0.5 µCi of tritium-labeled thymidine (specific activity: 7 Ci/mmol) was added to cells for 4 h. Afterwards, the cells were washed with 1 mL of 0.05 M Tris-HCl buffer pH 7.4 containing 0.11 M NaCl and […] 5% trichloroacetic acid (TCA). Each well was filled with 1 mL of a 0.1 M NaOH solution with 1% SDS for cell lysis. After 5 min, the cell lysates were transferred to scintillation vials, which were pre-filled beforehand with two milliliters of scintillation cocktail Ultima Gold XR from PerkinElmer (Waltham, MA, USA). The Scintillation Counter 1900 TR, TRI-CARB (Packard, Perkin Elmer, Inc., San Jose, CA, USA) was used to record the results. The radioactivity observed in untreated control cells was taken as 100%. The values of the tested compound were expressed as a percentage of the control value.
To investigate the antiproliferative activity of Les-6416 and Les-6418 on the MCF-7 cell line after 24 h of treatment, the [^3H]-thymidine incorporation assay was applied. Based on the outcome of previous analysis and the structural similarity of the tested compounds, 5, 2.5, and 1 µM concentrations were applied for this research. The obtained results are shown in the graph below (Figure 2). […] Formidable results also were obtained from the reference drug doxorubicin hydrochloride: 26.00 ± 7.07% for 1 µM and 43.50 ± 3.54% for 0.5 µM

[3] = system: caspase 8; assay: FLICA caspase-8 activity, flow cytometry; assay type: cell-based, human; conditions: 5 µM, 24 h, MCF-7
Procedure: To determine the effects of the novel compounds on the caspases-3/7, caspase-8, caspase-9, and caspase-10 activity, the FLICA Caspase-3/7 Assay Kit, FLICA Caspase-8 Assay Kit, FLICA Caspase-9 Assay Kit, and FLICA Caspase-10 Assay Kit were applied (ImmunoChemistry Technologies, Bloomington, MN, USA). MCF-7 cells were seeded on 6-well plates (1 × 10^5 cells per well) and incubated for 24 h. Afterwards, they were treated for 24 h with tested compounds (Les-6416, Les-6418, Les-6381, Les-6423, and Les-6424) in a concentration of 5 µM and the reference drug doxorubicin hydrochloride in a concentration of 0.5 µM. Next, cells were amassed and washed two times with cold PBS, followed by resuspension in an Apoptosis Wash Buffer to a final concentration of 5 × 10^5 cells/mL. Afterwards, 290 µL of the prepared cell suspensions were transferred into tubes, followed by the addition of 10 µL of FLICA solution, prepared immediately before use, to each sample and incubated for an hour at 37 °C. Next, cells were washed two times with 2 mL of Apoptosis Wash Buffer, provided in the kit, centrifuged, and resuspended in 300 µL of the buffer. Prepared samples were assessed by a BD FACSCanto II flow cytometer (Becton Dickinson Biosciences, San Jose, CA, USA). For each sample, 1 × 10^4 events were analyzed. The obtained results were investigated by applying FACSDiva software Version 6.1.3 (BD Biosciences Systems, San Jose, CA, USA).
To further investigate the effects of the newly synthesized compounds on the process of apoptosis we decided to measure their impact on various caspases as evidence of intrinsic (caspase 9) or extrinsic (caspase 8, 10) pathways of programmed cell death by applying flow cytometry analysis after 24 h treatment of MCF-7 breast cancer cells with novel 4-thiazolidinone derivatives and reference drug doxorubicin hydrochloride. […] With 41.28 ± 5.45%, 43.23 ± 2.85%, and 41.90 ± 6.89% of cells with activated caspase 8, 10, and 9, respectively, Les-6416 continued the trend of displaying the most significant effect on the three tested caspases. […]

SMILES: COc1cccc2c1C(=O)c1c(O)c3c(c(O)c1C2=O)C[C@@](O)(C(=O)CO)C[C@@H]3O[C@H]1C[C@H](N)[C@H](O)[C@H](C)O1 [DOX, Doxorubicin hydrochloride, reference compound]
- survival fraction ([1]; 1, 0.5, and 0.1 µM): 0%
- activity at 0.5 µM ([2]; MCF7, 0.5 µM): 43.5 ± 3.54%
- activity at 1 µM [2]: 26 ± 7.07%

SMILES: COc1ccc(C=C2SC(Nc3cc(OC)c(OC)c(OC)c3)=NC2=O)cc1 [Les-6381, 5-(4-Methoxybenzylidene)-2-((3,4,5-trimethoxyphenyl)amino)thiazol-4(5H)-one]
- cells with active caspase 8 [3]: 19.8 ± 3.69%

SMILES: COc1cc(NC2=NC(=O)C(=Cc3ccc4cc[nH]c4c3)S2)cc(OC)c1OC [Les-6416, 5-((1H-Indol-6-yl)methylene)-2-((3,4,5-trimethoxyphenyl)amino)thiazol-4(5H)-one]
- survival fraction ([1]; 2.5 µM): 5.89 ± 0.71%
- survival fraction ([1]; 5 µM): 1.35 ± 1.42%
- cells with active caspase 8 [3]: 41.28 ± 5.45%
- activity at 1 µM [2]: 69 ± 1.41%
- activity at 2.5 µM [2]: 27 ± 5.66%
- activity at 5 µM [2]: 21.5 ± 2.12%

SMILES: COc1cc(NC2=NC(=O)C(=Cc3c[nH]c4ccccc34)S2)cc(OC)c1OC [Les-6418, 5-((1H-Indol-3-yl)methylene)-2-((3,4,5-trimethoxyphenyl)amino)thiazol-4(5H)-one]
- survival fraction ([1]; 2.5 µM): 38.83 ± 1.66%
- survival fraction ([1]; 5 µM): 12.27 ± 9.27%
- activity at 1 µM [2]: 95.5 ± 7.78%
- activity at 2.5 µM [2]: 72 ± 12.7%
- activity at 5 µM [2]: 48.5 ± 12%

SMILES: COc1cc(NC2=NC(=O)C(=Cc3cccs3)S2)cc(OC)c1OC [Les-6423, 5-(Thiophen-2-ylmethylene)-2-((3,4,5-trimethoxyphenyl)amino)thiazol-4(5H)-one]
- cells with active caspase 8 [3]: 18.13 ± 1.96%
